Assay results from article PMC5094555, “Human Mitochondrial Cytochrome b Variants Studied in Yeast: Not All Are Silent Polymorphisms” (Human Mutation, 2016).

Assays:
[1] = molecular target: yeast complex III, cytochrome b p.Ser172Gly (Saccharomyces cerevisiae, UniProt P00163, S172G); type: biochemical; details: this work
Procedure: Yeast mitochondria were prepared as in Lemaire and Dujardin (2008). Briefly, yeast grown in YPGal medium were harvested at mid‐log phase. Protoplasts were obtained by enzymatic digestion of the cell wall using zymolyase in an osmotic protection buffer. Mitochondria were then prepared by differential centrifugation following osmotic shock of the protoplasts. Mitochondrial samples were aliquoted and stored at −80°C. Concentration of complex III in the mitochondrial samples was determined from dithionite‐reduced optical spectra, using ε = 28.5 mM^−1/cm at 562 − 575 nm. Decylubiquinol‐cytochrome c reductase activities were determined at room temperature by measuring the reduction of cytochrome c (final concentration of 20 μM) at 550 nm versus 540 nm over 1‐min time course in 10 mM potassium phosphate pH 7, 0.01% (w/v) lauryl‐maltoside and 1 mM KCN. Mitochondria were added to obtain a final concentration of 5–30 nM of complex III. […] Initial rates were measured as a function of the decylubiquinol concentration. […]
Cytochrome c reduction activity was measured as described above in the presence of increasing concentrations of inhibitors (six to 10 different concentrations). […] The midpoint inhibition concentrations (IC50) were determined from the titrations and the IC50 values were normalized by the concentration of complex III.

bovine complex III = molecular target: T1, bovine complex III (Bos taurus, UniProt P00157); set-up: method as in Vallières et al., 2013; details: atovaquone; per nM complex III; bovine enzyme; ref Vallières et al., 2013; read-out: IC50 (midpoint inhibition concentration); cited from earlier work
T1 construct: catalytic activity of bovine and yeast complex III, using purified mitochondria; from tissue

[2] = system: malaria parasite complex III; set-up: method as in Biagini et al., 2008; details: atovaquone; malaria parasite enzyme; ref Biagini et al., 2008; cited from earlier work
[3] = system: yeast AD1-9 strains (wild type and cytochrome b mutants); assay: Respiratory growth assay with increasing concentration of drug; type: cell-based, Saccharomyces cerevisiae
Procedure: Diploids were used in the experiments, except for monitoring the sensitivity of respiratory growth to atovaquone, where the AD1‐9 series was used.
Yeast strains were grown in 5 ml of YPEth medium with increasing concentration of drug. Cultures were inoculated from 1‐day‐old cultures on YPG to an OD600 nm of 0.2 and incubated at 28°C with vigorous shaking to maintain good aeration. Cell densities measured as OD600 nm were estimated 2 or 3 days after inoculation.

[4] = system: yeast complex III, cytochrome b p.His141Tyr; set-up: method as in Vallières et al. 2013; details: ref Vallières et al. 2013; cited from earlier work
[5] = system: yeast complex III, cytochrome b p.His141Phe; set-up: method as in Fisher and Meunier 2005; details: ref Fisher and Meunier 2005; cited from earlier work
[6] = molecular target: T2, yeast complex III (wild type) (Saccharomyces cerevisiae, UniProt P00163); set-up: method as in Vallières et al., 2013; details: atovaquone; per nM complex III; yeast enzyme; ref Vallières et al., 2013; read-out: IC50 (midpoint inhibition concentration); cited from earlier work
T2 construct: Mitochondria were added to obtain a final concentration of 5–30 nM of complex III; endogenous in cells; host or cells: mitochondria prepared from S. cerevisiae grown in YPGal (diploid strains)

[7] = system: yeast complex III, cytochrome b CysCysVal 133-135 ValLeuPro; set-up: method as in Fisher and Meunier 2005; details: ref Fisher and Meunier 2005; cited from earlier work

O=C1C(O)=C([C@H]2CC[C@H](c3ccc(Cl)cc3)CC2)C(=O)c2ccccc21 [atovaquone]
atovaquone sensitivity (IC50 mutant/IC50 control) [1]: 1.1
IC50 (bovine complex III): 75 nM
IC50 [2]: ~3 nM
Sensitivity of respiratory growth to atovaquone ([3]; strain HS-p.Ser172Asn (humanised Qo site), versus control strain (Fig. 3C)): inhibited at slightly higher doses of atovaquone than the control strain
Sensitivity of respiratory growth to atovaquone ([3]; strain HS-p.Ser172Asn versus HS-p.Ser172Asp (Fig. 3C)): more sensitive
Sensitivity of respiratory growth to atovaquone ([3]; strain HS-p.Ser172Asp (humanised Qo site), versus control strain (Fig. 3C)): inhibited at slightly higher doses of atovaquone than the control strain
Sensitivity of respiratory growth to atovaquone ([3]; strain p.Ser172Asn, compared with p.Ser172Asp and p.Leu150Phe (Fig. 3B)): increased sensitivity compared with p.Ser172Asp
Sensitivity of respiratory growth to atovaquone ([3]; strain p.Ser172Gly, compared with p.Ser172Asp and p.Leu150Phe (Fig. 3B)): increased sensitivity compared with p.Ser172Asp
Sensitivity of respiratory growth to atovaquone ([3]; wt strain, compared with p.Ser172Asp and p.Leu150Phe (Fig. 3B)): increased sensitivity compared with p.Ser172Asp
atovaquone sensitivity (IC50 mutant/IC50 control) [4]: 0.5
atovaquone sensitivity (IC50 mutant/IC50 control) [5]: 0.4
IC50 [6]: 4 nM
atovaquone sensitivity (IC50 mutant/IC50 control) [7]: 3.5
